From patent US12729381B2, “Methods and compositions for inactivating interleukin-2-inducible t-cell kinase (ITK)” (priority 2020, dated 2026) come the findings set out here.

Non-standard residues stand in square brackets, D forms with d. No end group written: not given here. *: point of attachment. FITC = O=C1OC2(c3ccc(O)cc3Oc3cc(O)ccc32)c2ccc(NC(=S)*)cc21; pY = N[C@@H](Cc1ccc(OP(=O)(O)O)cc1)C(=O)O

One assay has as its system Tregs (CD4+CD25+FoxP3+). Nature of the assay: Treg differentiation in total mouse T cells stimulated with anti-CD3. In kind it is cell-based. To be noted: anti-CD3, 5 to 24 hours; compared to vehicle alone or nonspecific peptide. The text has this:
To ensure that the peptide easily enters cells and that its cellular localization can be monitored, a C-terminal TAT peptide (GRKKRRQRRRPQ) (SEQ ID NO:3) and an N-terminal fluorescent FITC dye were incorporated, respectively, and named it SLP76pTYR peptide ([…]). SLP76pTYR peptide (FITC Dye ^132NEEEEAPVEDDADpYEPPPSNDEEA^155-TAT) (SEQ ID NO:5) and non-specific control peptide (FITC Dye-[…]-TAT) (SEQ ID NO:6) were synthesized by Genscript Inc (Piscataway, NJ). These peptides were initially dissolved in 3% ammonia water to a final concentration of 10 mg/mL and then further diluted into PBS to a final concentration of 0.1 mg/mL. Fresh splenocytes were isolated from WT mice, and T cells were generated from splenocytes as previously described (Baker et al., 2001). […] Cells were examined for the presence of FITC by microscopy using a Leica DMi8 microscope equipped with an infinity total internal reflection fluorescence (TIRF) and DIC modules, a Lumencor SOLA SE II light box, a 150 mW 488 (GFP) laser and filter cube, a 100x/1.47 NA objective, and an Andor iXon Life 897 EMCCD camera. […]

The next assay concerns SLP76: ITK signaling. Nature of the assay: Western blot of signaling proteins in human T cells from PBMC stimulated with anti-CD3 (OKT3). In kind it is cell-based. To be noted: vs vehicle alone. The protocol:
Western blotting: For protein analysis, T cells were either nonstimulated, or stimulated with anti-CD3 and anti-CD28 for 24 hours overnight, and were lysed with freshly prepared lysis buffer (RIPA Buffer (Fisher Scientific cat #PI89900)+cOmplete Protease Inhibitor Cocktail (Sigma-Aldrich; cat #11697498001)) and centrifuged for 10 minutes at 14000 rpm at 4° C. Protein aliquots of 70 μg of protein were loaded on a 12-18% denaturing polyacrylamide gel and transferred to nitrocellulose membranes for immunoblot analysis using antibodies specific to proteins of interest.
Human Samples: According to our IRB protocol (1140566-4), blood samples were obtained by vein puncture, and T cells were isolated from peripheral blood mononuclear cells (PBMC) of regular healthy donors. T cells were isolated from patient and healthy donor samples by Ficoll-Hypaque density centrifugation. The final product was resuspended at 3×10^6 cells/ml in media and stimulated with OKT-3/anti-CD3 ([…]; Ortho Bio-Tech) and anti-human CD28 ([…]; Biolegend; cat #302902) presence of […] of protamine sulfate and 1 mg/ml SLP76pTYR or vehicle for five minutes. T cell lysates were used in western blot analysis.
ITK deficiency is known to enhance the development of regulatory T cells (Tregs) (Elmore et al., 2020, Owen et al., 2019) so the peptide inhibitor was tested to determine whether inhibition of the ITK: SLP76Y145 interactions using SLP76pTYR would induce Tregs. First, the frequency of Tregs was examined by expression of CD4^+ and FoxP3^+ (FIG. 18A). Next, total mouse T cells were stimulated with anti-CD3 (Sugie et al., 2004) in the presence of either SLP76pTYR, nonspecific peptide, or vehicle alone for 5 to 24 hours, and cells were harvested and examined for the presence of Tregs (CD4^+CD25^+FoxP3^+). […] Next, the effects of SLP76pTYR peptide on human PBMC samples from healthy human patients was investigated. T cells from these patients were stimulated with anti-CD3 (OKT3) (Karimi et al., 2005) for 5 minutes in the presence of SLP76pTYR or vehicle alone. […] No differences in stimulated or unstimulated total human AKT (FIG. 18E and FIG. 28H) was observed, providing a showing that the SLP76pTYR peptide has an impact on signaling pathways downstream of SLP76 in both mouse and human T cells. […] Next, the ability of SLP76pTYR peptide to affect the production of proinflammatory cytokines in human PBMCs was investigated. T cells from healthy human were stimulated with anti-CD3 (OKT3) and anti-CD28 in the presence of SLP76pTYR or vehicle alone, along with Brefeldin A. T cells incubated with SLP76pTYR or vehicle alone were also examined in the presence of PMA+lonomycin and Brefeldin A for 6 hours.
More specifically, FIGS. 18A-18F depict Novel peptide SLP76pTYR specifically targets SLP76: ITK signaling and enhances Treg cell development. (FIG. 18A) Murine CD4^+ T cells were examine for total CD4+ and FOXP3 expression prior to treatment with SLP76pTYR. n=3, and one representative experiment is shown. (FIG. 18B) Total T cells stimulated in the presence of SLP76pTYR, nonspecific peptide, or vehicle alone were examined for total CD4 cells that are FoxP3^+. n=3, and one representative experiment is shown. (FIG. 18C) Quantification of three experiments as in (A) (FIG. 18D) Cell lysates were obtained from mouse T cells stimulated with anti-CD3 and anti-CD28 in the presence of SLP76pTYR, or vehicle alone. […]

The subject of assay [1] is T cells from GVHD patient blood samples. Nature of the assay: T cells from GVHD patient blood samples treated with SLP76pTYR. In kind it is cell-based, human.

Consider “FITC Dye ^132NEEEEAPVEDDADpYEPPPSNDEEA^155-TAT ({FITC}-NEEEEAPVEDDAD[pY]EPPPSNDEEAGRKKRRQRRRPQ) [SLP76pTYR]”, for which the “differentiation of Treg cells” value in the assay with Tregs (CD4+CD25+FoxP3+) was “Significantly enhanced differentiation of Treg cells”. In the assay with SLP76: ITK signaling (anti-CD3 (OKT3) for 5 minutes), the “phosphorylation of ERK, stimulated” value was “reduced phosphorylation of PLCγ1 and ERK”; the “phosphorylation of PLCγ1, stimulated” value is “reduced phosphorylation of PLCγ1 and ERK”. In the assay on SLP76: ITK signaling (non-stimulated T cells), the “non-stimulated phospho ERK” value was “No differences in non-stimulated phospho PLCγ1 and ERK were observed”; the “non-stimulated phospho PLCγ1” value is “No differences in non-stimulated phospho PLCγ1 and ERK were observed”. The “total AKT and stimulated or unstimulated phospho AKT” value with SLP76: ITK signaling is reported as “No differences in total AKT or either stimulated or unstimulated phospho AKT was observed”. Further, in assay [1], the IFN-γ production result is “significantly reducing IFN-γ and TNF-αproduction”; the TNF-α production entry was “significantly reducing IFN-γ and TNF-αproduction”; the “development of FoxP3+ regulatory T cells” value is listed as “enhances the development of FoxP3^+ regulatory T cells”.
